As a reminder, the ED50 is the dose at which the effect has come halfway, by size or by number of responders.

These results are taken from patent US4206225A, “2,10-Disubstituted dibenzo[b,d]pyrans and benzo[c]quinolines” (priority 1978, dated 1980).

Like-named read-outs stand apart in the source and are kept apart here.

Assay [1] deals with phenylbenzoquinone irritant-induced writhing in mice. In words: Suppression of phenylbenzoquinone (PBQ) irritant-induced writhing. The following applies: Mus musculus, read-out: ED50 in PBQ Writhing Test. Format: in vivo, mice (Carworth Farms CF-1). The protocol:
The analgesic properties of the compounds of this invention are determined by tests using thermal nociceptive stimuli, such as the mouse tail flick procedure, or chemical nociceptive stimuli, such as measuring the ability of a compound to suppress phenylbenzoquinone irritant-induced writhing in mice. These tests and others are described below.
Suppression of Phenylbenzoquinone Irritant-Induced Writhing
Groups of 5 Carworth Farms CF-1 mice are pretreated subcutaneously or orally with saline, morphine, codine or the test compound. Twenty minutes (if treated subcutaneously) or fifty minutes (if treated orally) later, each group is treated with intraperitoneal injection of phenylbenzoquinone, an irritant known to produce abdominal contractions. The mice are observed for 5 minutes for the presence or absence of writhing starting 5 minutes after the injection of the irritant. MPE50 's of the drug pretreatments in blocking writhing are ascertained.
(§1) Results of the above tests are recorded as percent maximum possible effect (% MPE). The % MPE of each group is statistically compared to the % MPE of the standard and the predrug control values. The % MPE is calculated as follows: [formula]
(§2) The analgesic activity is reported in terms of MPE50, the dose at which half of the maximal possible analgesic effect is observed in a given test.
The analgesic activity of several compounds of the invention in the above described test for suppresion of phenylbenzoquinone (PBQ) irritant-inducedwrithing are set forth below in Table I.
A general note: Writhing tests count abdominal constrictions after an irritant is injected.

The test system of assay [2] is animal pharmacology. The following applies: in vivo; cited from earlier work.
Assay [3] deals with rabbits. Particulars: 20 mg./kg.; cited from earlier work.
Assay [4] concerns thermal nociceptive stimulus (hot plate, 57° C.) in mice. In words: Mouse hot plate analgesic testing. Type of assay: in vivo. The following applies: s.c. The method, then:
(a) Mouse Hot Plate Analgesic Testing
The method used is modified after Woolfe and MacDonald, J. Pharmacol. Exp. Ther., 80, 300-307 (1944). A controlled heat stimulus is applied to the feet of mice on a 1/8" think aluminum plate. A 250 watt reflector infrared heat lamp is place under the bottom of the aluminum plate. A thermal regulator, connected to thermistors on the plate surface, programs the heat lamp to maintain a constant temperature of 57° C. Each mouse dropped into a glass cylinder (61/2" diameter) resting on the hot plate, and timing is begun when the animal's feet touch the plate. At 0.5 and 2 hours after treatment with the test compound the mouse is observed for the first "flicking" movements of one or both hind feet or until 10 seconds elapse without such movements. Morphine has an MPE50 =4-5.6 mg./kg. (s.c.).
as §1, §2

In assay [5] the test system is thermal nociceptive stimulus (heat applied to the tail) in mice. In words: Mouse tail flick analgesic testing. Format: in vivo. The following applies: s.c.
Description: (b) Mouse Tail Flick Analgesic Testing
Tail flick testing in mice is modified after D'Amour and Smith, J. Pharmacol. Exp. Ther., 72, 74-79 (1941), using controlled high intensity heat applied to the tail. Each mouse is placed in a snug-fitting metal cylinder, with the tail protruding through one end. This cylinder is arranged so that the tail lies flat over a concealed heat lamp. At the onset of testing, an aluminum flag over the lamp is drawn back, allowing the light beam to pass through the slit and focus onto the end of the tail. A timer is simultaneously activated. The latency of a sudden flick of the tail is ascertained. Untreated mice usually react within 3-4 seconds after exposure to the lamp. The end point for protection is 10 seconds. Each mouse is tested at 0.5 and 2 hours after treatment with morphine and the test compound. Morphine has an MPE5 50 of 3.2-5.6 mg./kg. (s.c.).
as §1, §2

[6] abbreviates: oral, fifty minutes pretreatment.
The mark [7] stands for this setting: sc, subcutaneous, twenty minutes pretreatment.

`CC(CCCc1ccccc1)c1cc2c(cc1O)C1=C(CCCC1)C(C)(C)O2` (racemic) [Example 16, dl-7,8,9,10-Tetrahydro-2-hydroxy-6,6-dimethyl-3-(1-methyl-4-phenylbutyl)-6H-dibenzo[b,d]pyran]: the 50% effective dose (ED50) in assay [1] (setting [6]) came out at 10 mg/kg. Turning to `CC(CCCc1ccccc1)c1cc2c(cc1O)[C@@H]1C(=O)CCC[C@@H]1C(C)(C)O2` (relative stereo) [Example 9A, dl-cis-6a,7,8,9,10,10a-Hexahydro-2-hydroxy-6,6-dimethyl-3-(1-methyl-4-phenylbutyl)-10-oxo-6H-dibenzo[b,d]pyran], the 50% effective dose (ED50) in assay [1] (setting [7]) is 10 to 32 mg/kg.

`CC(CCCc1ccccc1)c1cc2c(cc1O)C1=C(CCCC1O)C(C)(C)O2` (racemic) [Example 21, dl-7,8,9,10-Tetrahydro-2,10α-dihydroxy-6,6-dimethyl-3-(1-methyl-4-phenylbutyl)-6H-dibenzo[b,d]pyran]: the ED50 in assay [1] (setting [6]) is 10 mg/kg. Turning to `CCCCCc1cc(O)c2c(c1)N(C)C(C)(C)C1=C2CC(C)CC1` (centres unmarked) [7,8,9,10-tetrahydro-1-hydroxy-5,6,6,9-tetramethyl-3-n-pentylphenanthridine], in assay [2], the “activity in animal pharmacology” value is given as “completely inert”. Turning to `CC(CCCc1ccccc1)c1cc2c(cc1O)C1C(O)CCCC1C(C)(C)O2` (mixture of isomers) [Example 11, dl-cis-6a,7,8,9,10a-Hexahydro-2,10-dihydroxy-6,6-dimethyl-3-(1-methyl-4-phenylbutyl)-6H-dibenzo[b,d]pyran], the ED50 in assay [1] (setting [7]) is 27 mg/kg. Take `CCCCCc1cc2c(cc1O)C1=C(CCC(C)C1)C(C)(C)O2` (centres unmarked) [6,7,8,9-tetrahydro-2-hydroxy-3-n-amyl-6,6,9-trimethyldibenzo[b,d]pyran]: in assay [3], the activity in rabbits entry was “inactive”. In assay [4], `CN1CC[C@]23c4c5ccc(O)c4O[C@H]2[C@@H](O)C=C[C@H]3[C@H]1C5` [Morphine] gave an MPE50 of 4 to 5.6 mg/kg. The “MPE50 (printed MPE5 50)” value in assay [5] fell in the range of 3.2 to 5.6 mg/kg.
